# In patent US20220073536A1 (Rigel Pharmaceuticals, Inc., priority 2003, published 2022):
# Read-outs that look alike come from different tables or passages of the source.
# System: cultured human mast cells (CHMC)
# Experiment: CHMC low cell density IgE activation: tryptase assay
# Assay type: cell-based
# Conditions: IgE activation
# Outline: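 Fluorogenic readout of tryptase released into the supernatant (30 min substrate incubation, room temperature) measures degranulation. Cells were plated at low density (1000–1500/well, varied by donor) and triggered with anti-IgE for 30 min at 37 °C.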
# [1] = low cell density CHMC, tryptase, 3 pt, read-out: LD Tryptase, CHMC, IgE, 3 pt
# [2] = low cell density, 8 pt, read-out: LD Tryptase, CHMC, IgE, 8 pt
# [3] = low cell density CHMC, tryptase, 8 pt, read-out: LD Tryptase, CHMC, IgE, 8 pt
# [4] = low cell density, 3 pt, read-out: LD Tryptase, CHMC, IgE, 3 pt
Substance,IC50 [1] [µM],IC50 [2] [µM],further results
"N4- (2,2-Dimethyl-3-oxo-4H-5-pyrid[1,4]oxazin-6-yl)-5-fluoro-N2- (4-methoxycarbonylphenyl)-2,4-pyrimidinediamine [Compound 1313]",< 10,–,–
"N4- (2,2-Dimethyl-3-oxo-4H-5-pyrid[1,4]oxazin-6-yl)-5-fluoro-[1-(2-hydroxymethyl)-2-trifluoromethylbenzimidazol-5-yl]-2,4-pyrimidinediamine [Compound 924]",–,< 10,–
"N4- (2,2-Dimethyl-3-oxo-4H-5-pyrid[1,4]oxazin-6-yl)-N2- (1-methyl-2-trifluoromethylbenzimidazol-5-yl)-2,4-pyrimidinediamine [Compound 915]",–,< 10,–
"N4- (2,2-Dimethyl-3-oxo-4H-N4-oxo-5-pyrido[1,4]oxazin-6-yl)-5-fluoro-N2- (3,4,5-trimethoxyphenyl)-2,4-pyrimidinediamine [Compound 1340]",< 10,–,IC50 [3]: < 10 µM
"N4- (2,2-Dimethyl-3-oxo-4H-benz[1,4]oxazin-6-yl)-5-fluoro-N2-{1-methyl-2-[ (methylsulfonyl)methyl]benzimidazol-5-yl}-2,4-pyrimidinediamine [Compound 967]",–,< 10,IC50 [4]: < 10 µM
"N4- (2,2-Dimethyl-3-oxo-4H-benz[1,4]oxazin-6-yl)-5-fluoro-[1-(2-hydroxymethyl)-2-trifluoromethylbenzimidazol-5-yl]-2,4-pyrimidinediamine [Compound 922]",–,< 10,–
"N4- (3,4-Dichlorophenyl)-5-fluoro-N2- (4-[N-[methoxycarbonylmethylene]aminocarbonyl]phenyl)-N4-methyl-2,4-pyrimidinediamine [Compound 1348]",< 10,–,–
"N4- (3,4-Dichlorophenyl)-5-fluoro-N2-[2- (4-morpholinomethyl)-1H-benzimidazol-5-yl]-2,4-pyrimidinediamine [Compound 959]",–,< 10,–
"N4- (3,4-Dichlorophenyl)-5-fluoro-[1- (2-hydroxymethyl)-2-trifluoromethylbenzimidazol-5-yl]-2,4-pyrimidinediamine [Compound 920]",–,< 10,IC50 [4]: < 10 µM
"N4- (3,4-Ethylenedioxyphenyl)-5-fluoro-N2-[3,4-(tetrafluoroethylenedioxy)phenyl]-2,4-pyrimidinediamine [Compound 363]",< 10,–,–
"N4- (3-Chloro-4-methoxyphenyl)-5-fluoro-[1- (2-hydroxymethyl)-2-trifluoromethylbenzimidazol-5-yl]-2,4-pyrimidinediamine [Compound 921]",–,< 10,IC50 [4]: < 10 µM
"N4- (5-Amino-1,2,4-triazol-3-yl)-5-fluoro-N2-[3- (N-methylamino)carbonylmethyleneoxyphenyl]-2,4-pyrimidinediamine [Compound 1251]",–,–,IC50 [3]: < 10 µM
"N4- (Aminocarbonylphenyl)-5-fluoro-N2- (4-[N-[methoxycarbonylmethylene]aminocarbonyl]phenyl)-2,4-pyrimidinediamine [Compound 1338]",< 10,–,IC50 [3]: < 10 µM
"N4- (Cyclopentyl)-5-fluoro-N2- (4-[N-[methoxycarbonylmethylene]aminocarbonyl]phenyl)-2,4-pyrimidinediamine [Compound 1351]",< 10,–,IC50 [3]: < 10 µM
"N4-[3,4- (Difluoromethylenedioxy)phenyl]-5-fluoro-N2- (3,4,5-trimethoxyphenyl)-2,4-pyrimidinediamine [Compound 561]",–,< 10,–
"N4-[3,4- (Difluoromethylenedioxy)phenyl]-5-fluoro-N2-[2- (N-methylamino)carbonylindol-7-yl]-2,4-pyrimidinediamine [Compound 570]",–,–,"IC50 (low cell density CHMC, tryptase release, 3 point, read-out: LD Tryptase, CHMC, IgE, 3 pt): < 10 µM"
"N4-[3,4- (Difluoromethylenedioxy)phenyl]-N2- (3,5-dimethoxyphenyl)-5-fluoro-2,4-pyrimidinediamine [Compound 562]",–,< 10,IC50 [4]: < 10 µM
